Source: US5912164A, “Stereoselective hydrolysis of chiral carboxylic acid esters using esterase from ophiostoma or ceratocystis” (Laboratorios Menarini S.A., priority 1993, dated 1999)

What was measured:
[1] = system: AJ3 crude enzyme solution (esterase); experiment: Hydrolysis of racemic ketoprofen esters in 2-phase biotransformations; type: biochemical, Ophiostoma novo-ulmi; conditions: ester 20 g/l in cyclohexane, 24 hours, 25° C.
Method: Various esters of racemic ketoprofen were dissolved in cyclohexane to a concentration of 20 g/l. The esters used were methyl, ethyl, n-propyl, n-butyl, n-pentyl, n-hexyl. In the case of methyl ester, a suspension was prepared due to low solubility of ester in cyclohexane.
To 5 ml aliquots of crude enzyme solution in glass vials was added 2 ml of each of the six racemic ketoprofen ester solutions above. […] Reactions were conducted with shaking for 24 hours at 25° C.

[2] = system: Cells of AJ3; experiment: Whole-broth biotransformation of racemic ethyl ketoprofen by growing cells of AJ3; type: cell-based, Ophiostoma novo-ulmi; conditions: 20 g/l ester in broth, 120 hours
Method: This was shaken for 30 hours at 23° C. and then 2.5 ml transferred into a second 250 ml baffled flask containing 30 ml of the same medium as in Example 1. Following growth for 40 hours, at 23° C. with shaking, racemic ethyl ketoprofen was added to the broth to a concentration of 20 g/l.

[3] = system: cloned AJ3 esterase in recombinant E. coli CS62 lysate; experiment: Hydrolysis of racemic butyrate ester of 2-methoxycyclohexanol by lysate of CS62; type: biochemical, Ophiostoma novo-ulmi; conditions: 41 hours, 25° C., pH 8.0
Method: Cells (grown as per Example 7) were resuspended at 5% w/v in 100 mM TRIS, pH 8, and lysed by sonication for 15 minutes (10 seconds on, 10 seconds off cycle) at an amplitude of 20 μm in a Soniprep 150. The lysate was centrifuged to remove cell debris and the supernatant used in biotransformation.
10 g of the racemic butyrate ester of 2-methoxycyclo-hexanol was mixed with 100 ml of 100 mm TRIS, pH 8, by magnetic stirring. 20 ml of the above lysate of CS62 was added. The temperature of the biotransformation was controlled at 25° C. and the pH at 8.0 by the addition of 1M NaOH. Samples were removed and monitored for 2-methoxycyclohexanol formation. NaCl was added to saturation to 1 ml sample which was then extracted into 1 ×5 volumes of toluene. The toluene layer was removed and dried by the addition of MgSO4. The sample was then analysed by GC. A 15 m DB-5 column with 0.25 μm film was used with helium as the carrier, at 55.2 kPa, the oven temperature was 60° C. for 1 minute, raised at 10° C./min to 150° C., and this temperature was then held for a further minute.
The ee of the 2-methoxycyclohexanol formed was determined following derivatisation with trifluoroacetic anhydride (TFAA). 20 μl of TFAA was added to 1 ml of the toluene-extracted sample which was then allowed to stand at ambient temperature for 30 minutes. […]

[4] = system: esterase of AJ3 (Ophiostoma novo-ulmi), crude enzyme solution; experiment: Hydrolysis of racemic ethyl naproxen in cyclohexane by crude enzyme lysate of AJ3; type: biochemical; conditions: 72 hours, 23° C.
Method: This culture was grown with shaking at 30° C. for 48 hours. 10 ml was then transferred into 90 ml fresh medium in a 1 liter shake flask and grown for a further 8 hours at 30° C. with shaking. This flask was used to inoculate a 2.8 1 laboratory fermenter with 1.5 1 medium plus 5 g/l glucose and 0.5 ml/l of a silicone/PPG-based antifoam (XF0371, Ivanhoe Chemicals, Ill., U.S.A.). This fermenter was operated for 48 hours with agitation and aeration, controlled to maintain a DOT >50% air saturation and temperature and pH at 30° C. and 6.0 respectively.
At the completion of the fermentation the cells were harvested by centrifugation and the pellet resuspended at 10% w/v (based on wet cell weight) in lysis buffer, i.e. 0.1M sodium carbonate in 5% Triton X-100 aqueous solution. Lysis was carried out overnight at 8° C. with shaking after which the enzyme activity-containing lysate was separated from the cell debris by centrifugation. The lysate was then diluted 50% in lysis buffer, prior to its being used to carry out resolution.
Racemic ethyl naproxen (ethyl 6-methoxy-α-methyl-2-naphthaleneacetate) was dissolved in cyclohexane to a concentration of 19 mg/ml. 2 ml of this solution was then mixed with 5 ml of prepared crude enzyme solution in a glass vial and reacted with shaking for 72 hours at 23° C.

[5] = system: cloned AJ3 esterase in recombinant E. coli CS62 lysate; experiment: Hydrolysis of racemic ethyl naproxen by cell-free lysate of recombinant strain CS62; type: biochemical, Ophiostoma novo-ulmi; conditions: 1 hour, 25° C.
Method: Cells of CS62 grown and stored as described above were used to provide enzyme for use in the hydrolysis of ethyl naproxen. Cells were resuspended at 10% w/v in 0.1M sodium carbonate, pH 10, and lysed by sonication for 10 minutes (10 seconds on, 10 seconds off cycles) at 4° C. The enzyme lysate was then centrifuged to obtain a cell-free supernatant solution.
Racemic ethyl naproxen was dissolved in cyclohexane to a concentration of 100 g/l. 200 μl of this solution was added to 1 ml enzyme solution and shaken for 1 hour at 25° C. The phases were then separated and the aqueous phase analysed (by reverse phase HPLC) for naproxen accumulation.

[6] = Screen of 12 commercially-available lipase/esterase preparations on the butyrate ester; type: biochemical; conditions: racemic butyrate ester of 2-methoxycyclohexanol as substrate
Text: The stereo-specific activity of this biocatalyst is considered unusual. […] This is potentially advantageous in that it enables access to the (S)-enantiomer as the alcohol without having to exceed 50% conversion.

Molecule: CCCCOC(=O)C(C)c1cccc(C(=O)c2ccccc2)c1 (racemic) [n-BUTYL]
- ACID PRODUCED [1]: 0.3 mg/mL
- CONVERSION [1]: 8.0%

Molecule: CCOC(=O)C(C)c1cccc(C(=O)c2ccccc2)c1 (racemic) [ethyl ketoprofen]
- enantiomeric excess of ketoprofen acid formed, in favour of the (S)-enantiomer [2]: 96%
- hydrolysis of the added ester ([2]; HPLC): 18.2%

Molecule: CCCC(=O)OC1CCCCC1OC (racemic) [butyrate ester of 2-methoxycyclo-hexanol]
- conversion of the substrate [3]: 44%
- ee of the 2-methoxycyclohexanol in favour of the (S)-enantiomer [3]: 96%

Molecule: COC(=O)C(C)c1cccc(C(=O)c2ccccc2)c1 (racemic) [METHYL]
- ACID PRODUCED [1]: 1.7 mg/mL
- CONVERSION [1]: 42.3%
- EE (%)(S)-enantiomer [1]: 90%

Molecule: CCCCCOC(=O)C(C)c1cccc(C(=O)c2ccccc2)c1 (racemic) [n-PENTYL]
- ACID PRODUCED [1]: 0.18 mg/mL
- CONVERSION [1]: 4.4%

Molecule: CCOC(=O)C(C)c1ccc2cc(OC)ccc2c1 (racemic) [ethyl naproxen, ethyl 6-methoxy-α-methyl-2-naphthaleneacetate]
- enantiomeric purity of naproxen, (S) enantiomer (equivalent to the ee) [4]: 96.5%
- ee (enantiomeric excess) of naproxen in favour of the (S) enantiomer ([4]; HPLC): 93%
- CONVERSION ([4]; cyclohexane 2-phase): about 40%
- accumulation of naproxen in aqueous phase ([4]; ester 19 mg/ml in cyclohexane, 2 ml + 5 ml crude enzyme): 2.76 mg/mL
- CONVERSION [5]: about 26%
- ee in favour of the S-enantiomer [5]: > 95%
- naproxen accumulated in aqueous phase ([5]; ester 100 g/l in cyclohexane, 200 μl + 1 ml enzyme): 5.3 g/L

Molecule: CCCCCCOC(=O)C(C)c1cccc(C(=O)c2ccccc2)c1 (racemic) [n-HEXYL]
- ACID PRODUCED [1]: 0.09 mg/mL
- CONVERSION [1]: 2.3%

Molecule: CCCOC(=O)C(C)c1cccc(C(=O)c2ccccc2)c1 (racemic) [n-PROPYL]
- ACID PRODUCED [1]: 1.0 mg/mL
- CONVERSION [1]: 25.6%
- EE (%)(S)-enantiomer [1]: 86%

B1: porcine pancreatic lipase: commercially-available lipase/esterase preparation (protein, UniProt P00591 1-450, looked up)
Pancreatic triacylglycerol …: SEVCFPRLGCFSDDAPWAGIVQRPLKILPWSPKDVDTRFLLYTNQNQNNYQELVADPSTITNSNFRMDRKTRFIIHGFIDKGEEDWLSNICKNLFKVESVNCICVDWKGGSRTGYTQASQNIRIVGAEVAYFVEVLKSSLGYSPSNVHVIGHSLGSHAAGEAGRRTNGTIERITGLDPAEPCFQGTPELVRLDPSDAKFVDVIHTDAAPIIPNLGFGMSQTVGHLDFFPNGGKQMPGCQKNILSQIVDIDGIWEGTRDFVACNHLRSYKYYADSILNPDGFAGFPCDSYNVFTANKCFPCPSEGCPQMGHYADRFPGKTNGVSQVFYLNTGDASNFARWRYKVSVTLSGKKVTGHILVSLFGNEGNSRQYEIYKGTLQPDNTHSDEFDSDVEVGDLQKVKFIWYNNNVINPTLPRVGASKITVERNDGKVYDFCSQETVREEVLLTLNPC
- stereo-specificity of hydrolysis [6]: specificity for the (R)-enantiomer
